ChEMBL document CHEMBL1124940, “N-[(arylmethoxy)phenyl] carboxylic acids, hydroxamic acids, tetrazoles, and sulfonyl carboxamides. Potent orally active leukotriene D4 antagonists of novel structure” (J Med Chem, 1990)

Tests used:
[1] = tested on: Cavia porcellus; experiment: Inhibition of LTD4-induced broncho constriction in Guinea pig after intragastrical administration of a dose of 25 mg/kg; type: functional; settings: po, route intragastric
[2] = tested on: Cavia porcellus; experiment: Inhibition of ovalbumin-induced broncho constriction in Guinea pig after intragastrical administration of a dose of 25 mg/kg; type: functional; settings: po, route intragastric
[3] = tested on: Cavia porcellus; experiment: Tested for the inhibition of LTD4-induced broncho constriction in Guinea pig, injected intraduodenally at a dose of 25 mg/kg; type: functional; settings: route intraduodenal
[4] = tested on: Cavia porcellus; experiment: Tested for the inhibition of LTD4-induced bronchoconstriction in Guinea pig, injected intragastrically, dose of 25 mg/kg; type: functional; settings: po, route intragastric
[5] = tested on: Cavia porcellus; experiment: Inhibition of LTD4-induced broncho constriction in Guinea pig after intraduodenal administration of a dose of 25 mg/kg; type: functional
[6] = tested on: Cavia porcellus; experiment: Inhibition of LTD4-induced broncho constriction in Guinea pig after intragastrical administration of a dose of 3 mg/kg; type: functional; settings: po, route intragastric
[7] = tested on: Cavia porcellus; experiment: Tested for the inhibition of ovalbumin- induced bronchoconstriction in Guinea pig, injected intragastrically. Compound dose is 10 mg/kg; type: functional; settings: po, route intragastric
[8] = tested on: Cavia porcellus; experiment: Tested for the inhibition of ovalbumin- induced bronchoconstriction in Guinea pig, injected intragastrically. Compound dose is 25 mg/kg; type: functional; settings: po, route intragastric
[9] = tested on: Cavia porcellus; experiment: Tested for the inhibition of LTD4-induced bronchoconstriction in Guinea pig, injected intraduodenally, dose of 3 mg/kg; type: functional; settings: route intraduodenal
[10] = tested on: Cavia porcellus; experiment: In vitro LTD4-induced bronchoconstriction. i n isolated guinea pig trachea by injecting intraduodenally.; type: functional; settings: intraduodenal
[11] = tested on: Cavia porcellus; experiment: In vitro inhibition of ovalbumin-induced bronchoconstriction in isolated guinea pig trachea was determined after intraduodenal aministration; type: functional
[12] = tested on: Cavia porcellus; experiment: -log dissociation constant was determined In vitro in isolated guinea pig trachea after intraduodenal administration (before 10 min); type: ADME, organism-based; settings: in vivo, other
[13] = tested on: Cavia porcellus; experiment: In vitro Inhibition of ovalbumin-induced bronchoconstriction in isolated guinea pig trachea by injecting intraduodenally; type: functional; settings: intraduodenal
[14] = tested on: Cavia porcellus; experiment: Inhibition of LTD4-induced broncho constriction in Guinea pig after intraduodenal administration of a dose of 3 mg/kg; type: functional
[15] = tested on: Cavia porcellus; experiment: Tested for the inhibition of ovalbumin- induced bronchoconstriction in Guinea pig, compound injected intragastrically, dose of 25 mg/kg; type: functional; settings: po, route intragastric
[16] = tested on: Cavia porcellus; experiment: Dissociation constant was determined in vitro after intraduodenal administration in isolated guinea pig trachea; type: ADME, organism-based; settings: in vivo, other
[17] = species: Cavia porcellus; experiment: Dose of antagonist that produces 50% inhibition of ovalbumin-induced bronchoconstriction; type: functional
[18] = tested on: Rattus norvegicus; experiment: Antiinflammatory effect was studied in a rat carrageenan paw edema (CE) assay at 50 mg/kg; type: functional
[19] = tested on: Cavia porcellus; experiment: Tested for the inhibition of LTD4-induced bronchoconstriction in Guinea pig, compound injected intragastrically, dose of 25 mg/kg; type: functional; settings: po, route intragastric
[20] = tested on: Cavia porcellus; experiment: In vitro inhibition of LTD4-induced bronchoconstriction into isolated guinea pig trachea by injecting intragastrically; type: functional; settings: po
[21] = target: T1, Polyunsaturated fatty acid 5-lipoxygenase (Rattus norvegicus, UniProt P12527); experiment: Concentration for 50% inhibition of A-23187-stimulated radiolabeled 5-HETE and TXB2 synthesis by PMN 5-lipoxygenase; type: functional
T1 sequence (P12527 whole entry): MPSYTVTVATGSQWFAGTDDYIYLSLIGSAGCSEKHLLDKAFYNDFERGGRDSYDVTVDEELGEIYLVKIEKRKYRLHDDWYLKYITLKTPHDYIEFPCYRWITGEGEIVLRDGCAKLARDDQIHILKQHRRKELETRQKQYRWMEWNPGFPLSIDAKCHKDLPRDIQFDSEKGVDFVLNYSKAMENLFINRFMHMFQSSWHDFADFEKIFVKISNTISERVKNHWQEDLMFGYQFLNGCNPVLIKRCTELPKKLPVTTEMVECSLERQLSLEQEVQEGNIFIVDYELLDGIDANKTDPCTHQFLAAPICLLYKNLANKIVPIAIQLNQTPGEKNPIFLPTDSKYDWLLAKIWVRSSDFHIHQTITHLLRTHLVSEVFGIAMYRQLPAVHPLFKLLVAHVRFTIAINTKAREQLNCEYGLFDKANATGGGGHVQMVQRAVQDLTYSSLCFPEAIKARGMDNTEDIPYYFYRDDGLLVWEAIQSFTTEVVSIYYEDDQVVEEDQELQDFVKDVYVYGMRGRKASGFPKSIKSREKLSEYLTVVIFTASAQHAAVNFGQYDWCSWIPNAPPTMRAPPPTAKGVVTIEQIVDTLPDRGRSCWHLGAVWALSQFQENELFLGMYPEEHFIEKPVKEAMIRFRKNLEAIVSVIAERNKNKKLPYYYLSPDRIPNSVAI

[22] = tested on: Cavia porcellus; experiment: Tested for the inhibition of ovalbumin induced bronchoconstriction in Guinea pig, compound injected intraduodenally, dose is 10 mg/kg; type: functional; settings: route intraduodenal
[23] = tested on: Cavia porcellus; experiment: Tested for the inhibition of ovalbumin induced bronchoconstriction in Guinea pig, compound injected intraduodenally, dose is 25 mg/kg; type: functional; settings: route intraduodenal
[24] = tested on: Cavia porcellus; experiment: Tested for the inhibition of LTD4-induced bronchoconstriction in Guinea pig, compound injected intragastrically, dose of 3 mg/kg; type: functional; settings: po, route intragastric
[25] = tested on: Cavia porcellus; experiment: Tested for the inhibition of ovalbumin- induced bronchoconstriction in Guinea pig, compound injected intragastrically, dose of 3 mg/kg; type: functional; settings: po, route intragastric
[26] = tested on: Cavia porcellus; experiment: In vitro inhibition of LTD4-induced bronchoconstriction in isolated guinea pig trachea by injecting intraduodenally; type: functional; settings: intraduodenal
[27] = tested on: Cavia porcellus; experiment: In vitro inhibition of ovalbumin-induced bronchoconstriction after intragastrical administration 120 min before agonist into isolated guinea pig trachea; type: functional; settings: po
[28] = tested on: Cavia porcellus; experiment: Examined in vitro for LTD4-induced bronchoconstriction in isolated guinea pig trachea by injecting intraduodenally; type: functional; settings: intraduodenal
[29] = target: T2, Cyclooxygenase (Rattus norvegicus, UniProt P35355+Q63921); experiment: Concentration for 50% inhibition of A-23187-stimulated radiolabeled 5-HETE and TXB2 synthesis by Prostaglandin G/H synthase; type: protein assay
T2 sequence (P35355 whole entry): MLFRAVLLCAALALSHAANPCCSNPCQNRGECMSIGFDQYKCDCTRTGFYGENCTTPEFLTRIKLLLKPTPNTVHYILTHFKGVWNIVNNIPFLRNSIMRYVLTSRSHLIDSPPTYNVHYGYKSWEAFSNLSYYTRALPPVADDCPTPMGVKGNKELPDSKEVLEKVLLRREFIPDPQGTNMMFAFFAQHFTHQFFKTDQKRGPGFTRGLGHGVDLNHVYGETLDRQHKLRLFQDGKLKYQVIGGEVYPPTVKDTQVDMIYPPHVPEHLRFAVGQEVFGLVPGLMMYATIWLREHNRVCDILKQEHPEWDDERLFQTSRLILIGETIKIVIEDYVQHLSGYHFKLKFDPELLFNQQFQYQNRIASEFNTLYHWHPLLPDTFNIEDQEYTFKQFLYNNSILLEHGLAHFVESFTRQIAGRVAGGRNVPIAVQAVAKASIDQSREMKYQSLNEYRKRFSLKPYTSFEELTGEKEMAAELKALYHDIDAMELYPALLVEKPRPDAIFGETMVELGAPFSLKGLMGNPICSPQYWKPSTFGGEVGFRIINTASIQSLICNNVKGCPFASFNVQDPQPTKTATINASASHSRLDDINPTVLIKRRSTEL
T2 sequence (Q63921 whole entry): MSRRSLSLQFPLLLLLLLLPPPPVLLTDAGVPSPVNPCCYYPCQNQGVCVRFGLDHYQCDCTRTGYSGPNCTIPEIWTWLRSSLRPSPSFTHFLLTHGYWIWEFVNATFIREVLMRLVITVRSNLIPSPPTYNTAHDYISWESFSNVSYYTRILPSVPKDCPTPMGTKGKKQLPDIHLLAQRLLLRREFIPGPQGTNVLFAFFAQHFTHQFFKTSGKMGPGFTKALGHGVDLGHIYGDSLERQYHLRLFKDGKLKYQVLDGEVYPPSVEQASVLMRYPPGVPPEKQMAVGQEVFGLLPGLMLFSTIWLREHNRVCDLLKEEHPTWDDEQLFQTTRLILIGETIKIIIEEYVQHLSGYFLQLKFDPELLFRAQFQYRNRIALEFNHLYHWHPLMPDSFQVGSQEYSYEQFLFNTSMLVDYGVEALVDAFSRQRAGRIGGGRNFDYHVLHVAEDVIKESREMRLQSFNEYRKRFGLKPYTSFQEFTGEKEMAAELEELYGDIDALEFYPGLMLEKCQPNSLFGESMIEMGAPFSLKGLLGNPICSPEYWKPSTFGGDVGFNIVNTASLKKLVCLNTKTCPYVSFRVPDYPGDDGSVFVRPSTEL

[30] = tested on: Cavia porcellus; experiment: Dissociation constant was determined In vitro in isolated guinea pig trachea after intraduodenal administration; type: ADME, organism-based; settings: in vivo, other
[31] = tested on: Cavia porcellus; experiment: In vitro inhibition of LTD4-induced bronchoconstriction after intragastrical administration 120 min before agonist into isolated guinea pig trachea; type: functional; settings: po
[32] = tested on: Cavia porcellus; experiment: In vitro for inhibition of ovalbumin-induced bronchoconstriction in isolated guinea pig trachea by injecting intraduodenally; type: functional; settings: intraduodenal

Compound: CONC(=O)Cc1cccc(OCc2nc3ccccc3s2)c1
- inhibition in vivo at 25 mg/kg [1]: < -4%

Compound: Cc1ccc(S(=O)(=O)NC(=O)CCc2cccc(OCc3ccc4ccccc4n3)c2)cc1
- inhibition in vivo at 25 mg/kg [2]: < 26%
- inhibition in vivo at 25 mg/kg [3]: 97%
- inhibition in vivo at 25 mg/kg [4]: < 66%

Compound: O=C(NOCc1ccccc1)c1cccc(OCc2ccc3ccccc3n2)c1
- inhibition in vivo at 25 mg/kg [1]: < -14%
- inhibition in vivo at 25 mg/kg [5]: < 71%

Compound: CONC(=O)CCc1cccc(OCc2ccc3ccccc3n2)c1
- inhibition in vivo at 25 mg/kg [1]: 86%
- inhibition in vivo at 3 mg/kg [6]: 5%

Compound: c1ccc2nc(COc3ccc(Cc4nnn[nH]4)cc3)ccc2c1
- inhibition in vivo at 10 mg/kg [7]: 6%
- inhibition in vivo at 25 mg/kg [1]: 90%
- inhibition in vivo at 25 mg/kg [3]: 88%
- inhibition in vivo at 25 mg/kg [8]: 76%
- inhibition in vivo at 3 mg/kg [6]: 4%
- inhibition in vivo at 3 mg/kg [9]: -15%

Compound: c1cc(Cc2nnn[nH]2)cc(OCc2nc3ccccc3s2)c1
- inhibition in vivo at 25 mg/kg [3]: < 95%

Compound: COC(=O)CCC(=O)N(O)c1cccc(OCc2ccc3ccccc3n2)c1
- ED50 [10]: 3.3 mg/kg
- ED50 [11]: 27.4 mg/kg
- pKb [12]: 6.5

Compound: O=C(O)Cc1ccc(OCc2ccc3ccccc3n2)cc1
- inhibition in vivo at 25 mg/kg [1]: < -4%

Compound: O=C(NO)c1cccc(OCc2ccc3ccccc3n2)c1
- inhibition in vivo at 25 mg/kg [3]: < 33%

Compound: CONC(=O)Cc1cccc(OCc2ccc3ccccc3n2)c1
- ED50 [13]: 7.3 mg/kg
- inhibition in vivo at 3 mg/kg [14]: 44%
- inhibition in vivo at 25 mg/kg [15]: 83%
- pKb [16]: 6.08
- ED50 [17]: 3.6 mg/kg
- inhibition in vivo at 50 mg/kg [18]: < 41%
- inhibition in vivo at 25 mg/kg [19]: 86%
- ED50 [20]: 7.9 mg/kg
- IC50 [21]: 14.2 µM
- inhibition in vivo at 10 mg/kg [22]: 25%
- inhibition in vivo at 25 mg/kg [23]: 56%
- inhibition in vivo at 3 mg/kg [24]: 2%
- inhibition in vivo at 3 mg/kg [25]: 38%
- ED50 [26]: 1.8 mg/kg

Compound: CON(C)C(=O)Cc1cccc(OCc2ccc3ccccc3n2)c1
- inhibition in vivo at 25 mg/kg [1]: 93%

Compound: O=S(=O)(Nc1cccc(OCc2ccc3ccccc3n2)c1)C(F)(F)F [RITOLUKAST]
- ED50 [27]: 0.6 mg/kg
- ED50 [28]: 0.3 mg/kg
- IC50 [29]: 9.1 µM
- pKb [30]: 7.7
- ED50 [31]: 0.1 mg/kg
- IC50 [21]: 2 µM
- ED50 [32]: 3 mg/kg
